Source: US20220313835A1, “AMINOQUINOLINE COMPOUNDS, IMMUNOCONJUGATES, AND USES THEREOF” (BOLT BIOTHERAPEUTICS, INC., priority 2019, published 2022)

Assays:
human TLR7 = biological target: T1, human TLR7 (Homo sapiens, UniProt Q9NYK1); experiment: HEK Reporter Assay, HEK293 NFKB reporter cells expressing human TLR7; type: cell-based; details: read-out: HEK-293 hTLR7 EC50
T1 construct: host or cells: HEK293 NF-kB reporter cells
T1 sequence (Q9NYK1 27-1049): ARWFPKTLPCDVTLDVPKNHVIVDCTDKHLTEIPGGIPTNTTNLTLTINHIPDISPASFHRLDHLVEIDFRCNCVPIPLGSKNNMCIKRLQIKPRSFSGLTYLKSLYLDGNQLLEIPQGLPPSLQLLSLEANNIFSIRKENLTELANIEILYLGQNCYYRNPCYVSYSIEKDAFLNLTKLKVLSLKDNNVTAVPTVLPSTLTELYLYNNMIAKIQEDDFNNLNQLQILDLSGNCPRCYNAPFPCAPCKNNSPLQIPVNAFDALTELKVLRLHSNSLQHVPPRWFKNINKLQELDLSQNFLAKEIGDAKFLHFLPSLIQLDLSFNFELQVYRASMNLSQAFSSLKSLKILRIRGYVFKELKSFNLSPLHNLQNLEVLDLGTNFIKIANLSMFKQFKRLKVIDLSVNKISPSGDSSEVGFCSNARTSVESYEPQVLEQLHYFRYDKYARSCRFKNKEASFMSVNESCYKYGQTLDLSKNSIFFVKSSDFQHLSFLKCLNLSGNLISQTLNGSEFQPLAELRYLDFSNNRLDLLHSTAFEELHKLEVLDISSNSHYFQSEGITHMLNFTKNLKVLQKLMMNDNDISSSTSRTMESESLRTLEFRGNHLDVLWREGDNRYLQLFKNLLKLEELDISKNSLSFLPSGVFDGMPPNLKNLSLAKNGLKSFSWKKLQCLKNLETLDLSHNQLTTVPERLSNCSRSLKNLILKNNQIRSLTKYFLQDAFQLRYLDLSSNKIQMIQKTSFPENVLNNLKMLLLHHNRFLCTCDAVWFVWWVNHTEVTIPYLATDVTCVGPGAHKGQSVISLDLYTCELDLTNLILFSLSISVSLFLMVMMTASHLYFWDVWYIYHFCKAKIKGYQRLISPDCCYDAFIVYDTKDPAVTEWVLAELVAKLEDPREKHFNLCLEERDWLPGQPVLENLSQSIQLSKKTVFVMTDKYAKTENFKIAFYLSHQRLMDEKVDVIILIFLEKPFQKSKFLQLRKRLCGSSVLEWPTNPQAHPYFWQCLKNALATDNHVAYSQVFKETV
Method: (§1) Each compound was characterized by mass spectrometry and shown to have the mass indicated. Activity against HEK293 NFKB reporter cells expressing human TLR7 or human TLR8 was measured according to Example 31.
(§2) HEK293 reporter cells expressing human TLR7 or human TLR8 were purchased from Invivogen and vendor protocols were followed for cellular propagation and experimentation. Briefly, cells were grown to 80-85% confluence at 5% CO2 in DMEM supplemented with 10% FBS, Zeocin, and Blasticidin. Cells were then seeded in 96-well flat plates at 4×10^4 cells/well with substrate containing HEK detection medium and immunostimulatory molecules. Activity was measured using a plate reader at 620-655 nm wavelength.

human TLR8 = biological target: T2, human TLR8 (Homo sapiens, UniProt Q9NR97); experiment: HEK Reporter Assay, HEK293 NFKB reporter cells expressing human TLR8; type: cell-based; details: read-out: HEK-293 hTLR8 EC50
T2 construct: host or cells: HEK293 NF-kB reporter cells
T2 sequence (Q9NR97 27-1041): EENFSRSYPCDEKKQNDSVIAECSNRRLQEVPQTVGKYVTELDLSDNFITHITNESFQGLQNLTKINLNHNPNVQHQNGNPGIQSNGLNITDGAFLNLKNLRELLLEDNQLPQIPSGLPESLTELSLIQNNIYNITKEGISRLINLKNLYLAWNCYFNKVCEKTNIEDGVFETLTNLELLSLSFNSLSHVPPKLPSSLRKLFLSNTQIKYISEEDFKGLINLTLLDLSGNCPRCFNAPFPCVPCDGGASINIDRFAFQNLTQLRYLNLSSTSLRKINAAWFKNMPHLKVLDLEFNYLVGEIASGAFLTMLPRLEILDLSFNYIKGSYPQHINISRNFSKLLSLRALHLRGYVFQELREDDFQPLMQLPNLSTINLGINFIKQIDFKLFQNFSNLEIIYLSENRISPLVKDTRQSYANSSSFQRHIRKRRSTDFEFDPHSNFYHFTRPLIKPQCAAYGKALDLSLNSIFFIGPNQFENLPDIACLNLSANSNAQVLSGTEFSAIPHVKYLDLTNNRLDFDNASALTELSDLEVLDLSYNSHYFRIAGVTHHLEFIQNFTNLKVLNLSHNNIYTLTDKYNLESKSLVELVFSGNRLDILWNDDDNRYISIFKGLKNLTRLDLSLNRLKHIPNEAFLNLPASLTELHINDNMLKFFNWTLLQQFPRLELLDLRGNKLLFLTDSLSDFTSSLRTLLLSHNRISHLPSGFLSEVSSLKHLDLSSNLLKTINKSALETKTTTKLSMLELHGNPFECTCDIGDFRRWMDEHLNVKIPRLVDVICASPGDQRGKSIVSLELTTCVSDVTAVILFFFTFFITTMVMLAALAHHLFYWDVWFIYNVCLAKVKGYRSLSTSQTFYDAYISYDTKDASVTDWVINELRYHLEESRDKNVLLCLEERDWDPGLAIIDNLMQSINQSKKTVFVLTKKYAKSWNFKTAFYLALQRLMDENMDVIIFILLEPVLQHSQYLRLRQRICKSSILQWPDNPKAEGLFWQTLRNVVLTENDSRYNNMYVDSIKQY
Method: as §1, §2

SMILES	EC50 (human TLR7)	EC50 (human TLR8)
CCCCCc1cc2c(CCCCCNC(C)=O)cccc2nc1N [AQ-1, N-(5-(2-amino-3-pentylquinolin-5-yl)pentyl)acetamide]	0.252 µM	> 9 µM
CCCCCc1cc2c(CCCCCNC(=O)Nc3cccc(C#N)c3)cccc2nc1N [AQ-2, 1-(5-(2-amino-3-pentylquinolin-5-yl)pentyl)-3-(3-cyanophenyl)urea]	> 9 µM	> 9 µM
CCCCCc1cc2c(CCCCCNC(=O)OC(C)(C)C)cccc2nc1N [AQ-3, tert-butyl (5-(2-amino-3-pentylquinolin-5-yl)pentyl)carbamate]	> 9 µM	> 9 µM
CCCCCc1cc2c(CCCCCNC=O)cccc2nc1N [AQ-4, N-(5-(2-amino-3-pentylquinolin-5-yl)pentyl)formamide]	> 9 µM	> 9 µM
CCCCCc1cc2ccc(-c3cccc(S(=O)(=O)N4CC(CO)C4)c3)cc2nc1N [AQ-5, (1-((3-(2-amino-3-pentylquinolin-7-yl)phenyl)sulfonyl)azetidin-3-yl)methanol]	> 9 µM	0.562 µM
CCCN(CCC)C(=O)c1cc2ccccc2nc1N [AQ-6, 2-amino-N,N-dipropylquinoline-3-carboxamide]	> 9 µM	> 9 µM
CCCN(CCC)C(=O)c1cc2c(CCCCCN)cccc2nc1N [AQ-7, 2-amino-5-(5-aminopentyl)-N,N-dipropylquinoline-3-carboxamide]	> 9 µM	> 9 µM
CCCCCc1cc2c(CCCCCN(C)C)cccc2nc1N [AQ-8, 5-(5-(dimethylamino)pentyl)-3-pentylquinolin-2-amine]	> 9 µM	1.02 µM
CCCCCc1cc2ccc(C(=O)Nc3ccc(N4CCC(C(=O)NCCNC(=O)OC(C)(C)C)CC4)nc3)cc2nc1N [AQ-10, tert-butyl N-[2-[[1-[5-[(2-amino-3-pentyl-quinoline-7-carbonyl)amino]-2-pyridyl]piperidine-4-carbonyl]amino]ethyl]carbamate]	> 9 µM	> 9 µM
CCCCCc1cc2ccc(-c3cccc(S(=O)(=O)N4CC(CNC(=O)OC(C)(C)C)C4)c3)cc2nc1N [AQ-11, tert-butylN-[[1-[3-(2-amino-3-pentyl-7-quinolyl)phenyl]sulfonylazetidin-3-yl]methyl] carbamate]	> 9 µM	> 9 µM
CCCCCc1cc2ccc(-c3cccc(S(=O)(=O)N4CC(CN)C4)c3)cc2nc1N [AQ-12, 7-[3-[3-(aminomethyl)azetidin-1-yl]sulfonylphenyl]-3-pentyl-quinolin-2-amine]	> 9 µM	1.48 µM
CCCCCc1cc2c(CCCCCN)cc(-c3cccc(S(=O)(=O)N4CC(CO)C4)c3)cc2nc1N [AQ-13, [1-[3-[2-amino-5-(5-aminopentyl)-3-pentyl-7-quinolyl]phenyl]sulfonylazetidin-3-yl]methanol]	> 9 µM	> 9 µM
CCCCCc1cc2ccc(C(=O)Nc3ccc(N4CCC(C(=O)NCCN)CC4)nc3)cc2nc1N [AQ-14, 2-amino-N-(6-(4-((2-aminoethyl)carbamoyl)piperidin-1-yl)pyridin-3-yl)-3-pentylquinoline-7-carboxamide]	> 9 µM	> 9 µM
CCCCCc1cc2c(CC3CCCN3C)cc(-c3cccc(S(=O)(=O)N4CC(CO)C4)c3)cc2nc1N (stereo not shown) [AQ-15, [1-[3-[2-amino-5-[(1-methylpyrrolidin-2-yl)methyl]-3-pentyl-7-quinolyl]phenyl]sulfonylazetidin-3-yl]methanol]	> 9 µM	2.45 µM
CCCCCc1cc2c(C#CCCCNC(=O)OC(C)(C)C)cc(-c3cccc(S(=O)(=O)N4CC(CO)C4)c3)cc2nc1N [AQ-16, tert-butyl N-[5-[2-amino-7-[3-[3-(hydroxymethyl)azetidin-1-yl]sulfonylphenyl]-3-pentyl-5-quinolyl]pent-4-ynyl]carbamate]	> 9 µM	> 9 µM
CCCCCc1cc2ccc(-c3cccc(S(=O)(=O)N4CC(CN/C(=N\CCOC)Nc5cccc(C#N)c5)C4)c3)cc2nc1N [AQ-17, 1-((1-((3-(2-amino-3-pentylquinolin-7-yl)phenyl)sulfonyl)azetidin-3-yl)methyl)-3-(3-cyanophenyl)-2-(2-methoxyethyl)guanidine]	> 9 µM	> 9 µM
CCCCCc1cc2c(CCCCCN/C(=N\c3cccc(C#N)c3)NCCOC)cccc2nc1N [AQ-18, 1-(5-(2-amino-3-pentylquinolin-5-yl)pentyl)-3-(3-cyanophenyl)-2-(2-methoxyethyl)guanidine]	> 9 µM	> 9 µM
